The values that follow are results of earlier work, collected in patent publication US7119079B2, “Bioadhesive pharmaceutical compositions” (priority 2003, dated 2006).

Data set [1] relates to distal ulcerative colitis. Particulars: enemas, patients with distal ulcerative colitis; fraction of patients.
In data set [2] the test system is Mycobacterium tuberculosis.
In data set [3] the test system is distal ulcerative colitis. Particulars: compared with hydrocortisone and mesalamine enemas.

For the compound `Nc1ccc(O)c(C(=O)O)c1` [mesalamine, 5-amino salicylic acid], the patients showing improvement result in data set [1] is “Three quarters”.
On to `Nc1ccc(C(=O)O)c(O)c1` [Compound 4-ASA, 4-amino salicylic acid], for which, in data set [2], the “activity against Mycobacterium tuberculosis” value is recorded as “bacteriostatic”. In addition, the “effectiveness of enemas in distal ulcerative colitis” value in data set [3] was “as effective as hydrocortisone enemas and as effective as mesalamine enemas”.
Turning to `O=C(O)c1cc(/N=N/c2ccc(S(=O)(=O)Nc3ccccn3)cc2)ccc1O` [sulfasalazine, salicyl-azo-sulfapyridine], in data set [1], the patients showing improvement entry is listed as “Three quarters”.
`Nc1ccc(S(=O)(=O)Nc2ccccn2)cc1` [sulfapyridine]: the patients showing improvement result in data set [1] is “about one third”.
